Experimental data published in US20220332821A1, “DOSING REGIMEN AND COMBINATION THERAPIES FOR MULTISPECIFIC ANTIBODIES TARGETING B-CELL MATURATION ANTIGEN” (NOVARTIS AG, priority 2019, published 2022).
Entries after “also recorded” stand apart in the source; their conditions may differ.

Assays:
KMS11-Luc cells = test: RTCC assay with KMS11-Luc and human T cells, BSBM3 and AL-102 matrix, Example 9; assay type: cell-based
Procedure: To evaluate the ability of AL-102 to enhance the activity of BSBM3, a redirected T cell cytotoxicity (RTCC) assay was performed using human T cells and a BCMA-expressing multiple myeloma cell line treated with dose range combinations of BSBM3 and AL-102 in a 10×8 matrix fashion. Human T cells were enriched from peripheral blood of three healthy human donors. First, peripheral blood mononuclear cells (PBMCs) were fractionated from donor blood using a Ficoll-Paque PLUS density gradient (GE Healthcare #17-1440-02) in Leucosep tubes (Greiner #227290) and stored as viable frozen aliquots in liquid nitrogen. PBMC were thawed and Pan T cells were isolated by negative selection according to manufacturer's recommended protocol (Miltenyi #130-096-535). The unlabeled cell fraction, enriched for T cells, was collected by manual magnetic separation on LS columns (Miltenyi #130-042-401). T cells were prepared in T cell media (TCM) consisting of RPMI-1640 (Gibco #11875-085), 10% FBS (Seradigm #1500-500), 1% Pen/Strep (Life Technologies #15070063), 1% L-glutamine (Thermo Scientific #25030-081), 1% Non-Essential Amino Acids (NEAA) (Life Technologies #11140-050), Sodium Pyruvate (NaPy) (Life Technologies #11360-070), HEPES (Life technologies, Cat #15630080), 0.1% 2-Betamercaptoethanol (2-BME) (Life Technologies, Cat #21985-023). KMS11 multiple myeloma cell line was cultured in RPMI1640 supplemented with 20% FBS (Gibco #11875-085, Seradigm #1500-500). The target MM cell line KMS11 was transduced to constitutively express luciferase (KMS11-Luc), and used to measure cell viability/survival. KMS11-Luc cells were pelleted and resuspended in fresh media immediately prior to plating to remove any basal level of shed BCMA that may be present. 7,500 KMS11-Luc target cells in 10 μL TCM were added to wells of 384-well plates (Corning #3765). 10 μl of BSBM3 at a concentration of 10 nM was serially diluted 5-fold, and 10 μl of AL-102 at a concentration of 1000 nM was serially diluted 5-fold, and dispensed into corresponding wells of the assay plates. 15,000 T cells were added to corresponding wells of the assay plate in 10 μL TCM for an E:T of 2:1. The assay was incubated at 37° C./5% CO2 for 48 hr, followed by measurement of luciferase activity to indicate target cell viability (BrightGlo, Promega #E2650) following manufacturer's protocols. Plates were read on an Envision plate reader. Target cells only (KMS11-Luc) without T cells or antibodies served as control and represent 100% luciferase activity (100% viability). Data were plotted and analyzed using GraphPad Prism. EC50 values were calculated using sigmoidal, 4-parameter non-linear regression curve fit.

[1] = test system: membrane BCMA on KMS11 cells; test: BCMA membrane expression by flow cytometry after GSI treatment of KMS11 cells; assay type: cell-based, human
Procedure: (§1) KMS11-Luc cells were cultured in a 96-well round bottomed plate (Corning #3799) at 1.5×10^5 cells per well in a final volume of 200 μL that included a 12-point, 5-fold serial dilution of AL-102 in RPMI1640 (Gibco #11875-085) supplemented with 20% FBS (Seradigm #1500-500) and L-glutamine (Thermo Fisher #25030-081). The highest starting concentration of AL-102 was 1 μM. Cells were incubated for 20 hours at 37° C./5% CO2. Cells were pelleted, supernatant collected for measurement of shed BCMA levels, and cell pellets stained for evaluation of BCMA membrane expression levels.
Cells were pelleted by centrifugation, and supernatants were transferred to a fresh plate and frozen at −80° C. for later sBCMA analysis by ELISA. For membrane BCMA analysis, cell pellets were resuspended in 100 μL BD Stain Buffer containing BSA (BD#554657) and stained with anti-BCMA-PE (Biolegend, clone 19F2 1.25 ul/test) and Fixable Viability Dye eFluor506 (Thermo Scientific, 1:800 dilution) for 30 minutes at 4° C. Samples were analyzed by flow cytometry on a BD LSR Fortessa instrument. FlowJo v10 software was used for analysis. The anti-BCMA antibody binding capacity (ABC) on KMS11 cells was determined using Quantum Simply Cellular beads (Bangs Laboratories) following a vendor supplied protocol. The ABC is an estimate of the quantity of receptors per cell.

[2] = test system: BCMA shedding in KMS11 cells; test: Shed BCMA levels by ELISA after GSI treatment of KMS11 cells; assay type: cell-based, human; conditions: 20 hours, serial dilution from 1 μM
Procedure: as §1
Soluble BCMA levels in supernatant were determined by ELISA following a vendor supplied protocol (R&D Systems #DY193). Briefly, recombinant human BCMA-Fc protein was included in the kit, and used to generate a standard curve. Collected samples were assayed and sBCMA concentrations extrapolated from the standard curve. Quantified values as determined by the kit were divided by 5.5 to correct for a molecular mass difference between BCMA-Fc fusion protein used in the kit as a standard curve (32,554.6 Da) and the mass of endogenously shed BCMA extra-cellular domain (5,899.3 Da). The results were analyzed using SoftMax Pro v5.4.1 and graphed in GraphPad Prism.

Structure (SMILES): Cc1cccc2c1NC(=O)[C@@H](NC(=O)[C@H](CCC(F)(F)F)[C@H](CCC(F)(F)F)C(N)=O)N=C2c1cccc(F)c1 [AL-102]
- AL-102 concentration with minimal effect on BSBM3 potency (KMS11-Luc cells; RTCC combination matrix): ≤ 0.32 nM
- AL-102 concentration with moderate effect on BSBM3 potency (KMS11-Luc cells; RTCC combination matrix): 1.6 nM
- AL-102 concentrations with maximum enhancement of BSBM3 potency (KMS11-Luc cells; RTCC combination matrix): ≥ 8 nM
- effect of AL-102 on RTCC potency of BSBM3 (in words) (KMS11-Luc cells; combination with BSBM3): synergistically enhanced the RTCC potency of BSBM3; also recorded: enhanced the RTCC potency of BSBM3 in a dose dependent manner
- increase in cell surface BCMA expression ([1]; 1 μM AL-102 versus untreated KMS11 cells): 20 fold
- average BCMA antibody-binding capacity (ABC) ([1]; KMS11 cells, 1 μM AL-102, 20 hours, untreated ˜14,000): ~285,000
- inhibition of BCMA shedding [2]: effectively inhibited shedding of BCMA from KMS11 cells in a dose-dependent manner
